Experimental data from patent US12396995B2, “Substituted 4-aminoisoindoline-1,3-dione compounds and second active agents for combined use” (Celgene Corporation, priority 2019, dated 2025).

Test system: panel of DLBCL cell lines
Test: CellTiter-Glo proliferation, Compound 1 with BET inhibitor Compound B
Assay type: cell-based
Settings: Combinations of Compound B and Compound 1; 40 DLBCL cell lines; 5 days
Method: A panel of DLBCL cell lines in the following table were treated with single-agent Compound 1, single agent Compound B (a BET inhibitor), along with the combinations of Compound 1 and Compound B, at a concentration range to investigate the antiproliferative activities.
Experimental procedures: CellTiter-Glo (CTG), a luminescent dye that measures adenosine-5′-triphosphate (ATP), was used to quantify the cell proliferation across a panel of 40 unique DLBCL cell lines. Single agents and combinations were pre-spotted into 384-well plates (diluted in final dimethyl sulfoxide [DMSO] concentration of 0.1% for a maximal volume of 50 μL). […]
For each DLBCL cell line, 50 μL of cell suspension at their respective seeding densities of 0.025 to 0.2×10^6 cells per mL were added to 384-well plates containing the compounds. The effect of the single agents and combinations on the proliferation/viability of cells was assessed after 5 days of incubation. Twenty-five microliters of CTG per well was then dispensed to the cell suspension, and ATP released by viable cells was measured after a 30-minute incubation as relative luminescence units (RLU) using an EnVision plate reader (PerkinElmer, Covina, CA). […]

O=C1CC[C@H](N2C(=O)c3cccc(NCc4ccc(CN5CC(N6CCOCC6)C5)cc4F)c3C2=O)C(=O)N1 [Compound 1, (S)-2-(2,6-dioxopiperidin-3-yl)-4-((2-fluoro-4-((3-morpholinoazetidin-1-yl)methyl)benzyl)amino)isoindoline-1,3-dione]
combination effect on proliferation (Bliss independence and HSA models): synergy and additivity in the majority of DLBCL cell lines
